The text below walks through data of patent EP1674110A1, “Inhibition of bradykinin release” (priority 1999, dated 2000).

One assay has as its system BAEC monolayers. The experiment in a line: EC intracellular free Ca2+ (fluo-3) after CD18 cross-linking of PMNs. Conditions: endothelial cells pre-treated with BAPTA AM; concentration not given. Type of assay: cell-based, bovine. On the procedure: The Ca^2+ sensitive fluorescent probe fluo-3/AM (Molecular Probes Europe BV, Leiden, The Netherlands) is used for determination of changes in EC intracellular free Ca^2+. Confluent BAEC monolayers on filters are incubated for 30 min at 37°C with fluo-3/AM (3µM in HBSS containing 2% FCS and 10 mM HEPES) added to both the apical and basolateral surface. The monolayers are washed three times and incubated with fresh HBSS in the dark for 20 min at room temperature to allow complete hydrolysis of the dye ester. Anti-CD18 or anti-L-selectin mAb treated PMNs are added to ECs and receptor cross-linking is induced with secondary mAb as described above. In separate experiments, PMN secretion containing medium (see above) is used to stimulate ECs in the absence of PMNs. Changes in EC [Ca^2+]i in response to these stimuli are measured through continuous registration of fluorescence intensity with a laser-scanning confocal imaging system (Insight Plus; Meridian Instruments Inc., Okemon, Michigan).
Monolayers of endothelial cells are labelled with the Ca^2+-sensitive fluorophore fluo-3, and stimulus-induced changes in EC [Ca^2+]i monitored by confocal laser scanning microscopy. Adding anti-CD18 treated PMNs to the EC monolayer caused no change in EC [Ca^2+]. […]

For assay [1], the system named is endothelial cells (HUVEC or BAEC). Nature of the assay: Transendothelial electrical resistance (TEER) after CD18 cross-linking of PMNs. Format: cell-based. Conditions: endothelial cells pre-treated with BAPTA AM; concentration not given. On the procedure: Human umbilical vein endothelial cells (HUVEC) and bovine aorta endothelial cells (BAEC) are isolated and cultured as previously described (Gautam et al. 1998, Brit. J. Pharm. 125:1109-1114). HUVEC or BAEC in the first to fifth passages are detached by brief (2 min) trypsin-EDTA treatment (0.25% trypsin/0.01 % EDTA) and replated onto either 0.2 µm pore size Anopore inorganic membrane or 3.0 µm pore size polycarbonate filters (Tissue Culture inserts, 10 mm; NUNC, Roskilde, Denmark). In order to promote cellular differentiation and enhance attachment of endothelial cells (ECs), the filters are pretreated with 50 µl Biomatrix I (167 µg/ml) and air-dried. […] The EC are grown to confluent monolayers, as assessed by daily microscopic observation and measurement of the electrical resistance across the monolayer (Gautam et al. 1998, Brit. J. Pharm. 125:1109-1114).
Two different approaches are used for assessment of stimulation-induced changes in EC permeability. […] Electrical resistance across the EC monolayer is measured at 37°C with electrodes in each compartment exactly positioned in relation to each other and to the monolayer. The electrical resistance of individual EC monolayers is obtained by subtracting the resistance of the corresponding naked filter coated with Biomatrix as measured prior to seeding of the endothelial cells. […]

Assay [2] concerns the target HBP (heparin-binding protein, CAP37). Conditions: lipid A component of LPS and endotoxin binding to HBP; read-out: Kass (converted); cited from earlier work.

Turning to `CC(=O)OCOC(=O)CN(CC(=O)OCOC(C)=O)c1ccccc1OCCOc1ccccc1N(CC(=O)OCOC(C)=O)CC(=O)OCOC(C)=O` [BAPTA AM], the “rise in EC free intracellular Ca^2+ in response to CD18 cross-linking” value in the assay on BAEC monolayers is on record as “completely inhibited”. Moreover, in assay [1], the “change in TEER in response to CD18 cross-linking” value was “completely inhibited”.

For the compound lipid A, the Kd in assay [2] was 1.25 nM.
